Results from patent US7153844B2, “Estrogen-linked platinum (II) complexes as anticancer agents” (priority 2002, dated 2006).

Experiments:
Format in all cases: cell-based, human
[1] = test system: A2780cp; experiment: Cell proliferation with the MTT assay; conditions: read-out: IC50 (Inhibitory concentration 50%), ovary, ER−, NR = IC50 not reach at the concentrations tested
Description: (§1) Cell Proliferation with the MTT Assay (Uterine, Ovarian and Breast Cancer Cell Lines)
(§2) Several human uterine, ovarian and breast cancer cell lines were used to evaluate the antitumor activities of the new estrogen-linked platinum (II) complexes. The cytotoxicity of the platinum (II) complexes was done along with cisplatin as the control on both ER+ and ER— human uterine, ovarian and breast carcinomas. Cell proliferation was done with the MTT assay as described by J. Carmichael et al. (Cancer Res. 47, 943–946 (1987) see also C. H. J. Ford et al., Cancer Chemother. Pharmacol. 24, 295–301 (1986)). The MTT assay is based on the ability of viable cells to reduce a soluble colorless tetrazolium salt, 3-(4,5-dimethylthiazol-2-yl)-2,5-diphenyltetrazolium bromide (MTT), into an insoluble blue formazan derivative.

[2] = test system: KLE; experiment: Cell proliferation with the MTT assay; conditions: read-out: IC50 (Inhibitory concentration 50%), uterus, ER−, NR = IC50 not reach at the concentrations tested
Description: as §1, §2

[3] = test system: A2780wt; experiment: Cell proliferation with the MTT assay; conditions: read-out: IC50 (Inhibitory concentration 50%), ovary, ER−, NR = IC50 not reach at the concentrations tested
Description: as §1, §2

[4] = test system: MCF-7; experiment: Cell proliferation with the MTT assay; conditions: read-out: IC50 (Inhibitory concentration 50%), MCF-7, breast, ER+, NR = IC50 not reach at the concentrations tested
Description: as §1, §2

[5] = test system: RL-95-2; experiment: Cell proliferation with the MTT assay; conditions: read-out: IC50 (Inhibitory concentration 50%), RL-95-2, uterus, ER+, NR = IC50 not reach at the concentrations tested
Description: as §1, §2

[6] = test system: SKOV-3; experiment: Cell proliferation with the MTT assay; conditions: read-out: IC50 (Inhibitory concentration 50%), SKOV-3, ovary, ER+, NR = IC50 not reach at the concentrations tested
Description: as §1, §2

[7] = test system: Ishikawa; experiment: Cell proliferation with the MTT assay; conditions: read-out: IC50 (Inhibitory concentration 50%), uterus, ER+, NR = IC50 not reach at the concentrations tested
Description: as §1, §2

[8] = test system: HEC-1A; experiment: Cell proliferation with the MTT assay; conditions: read-out: IC50 (Inhibitory concentration 50%), uterus, ER−, NR = IC50 not reach at the concentrations tested
Description: as §1, §2

[9] = test system: HS578T; experiment: Cell proliferation with the MTT assay; conditions: read-out: IC50 (Inhibitory concentration 50%), breast, ER−, NR = IC50 not reach at the concentrations tested
Description: as §1, §2

[10] = test system: HeLa; experiment: Cell proliferation with the MTT assay; conditions: read-out: IC50 (Inhibitory concentration 50%), uterus, ER−, NR = IC50 not reach at the concentrations tested
Description: as §1, §2

[11] = test system: OVCAR-3; experiment: Cell proliferation with the MTT assay; conditions: read-out: IC50 (Inhibitory concentration 50%), OVCAR-3, ovary, ER+, NR = IC50 not reach at the concentrations tested
Description: as §1, §2

[12] = test system: ZR-75-1; experiment: Cell proliferation with the MTT assay; conditions: read-out: IC50 (Inhibitory concentration 50%), ZR-75-1, breast, ER+, NR = IC50 not reach at the concentrations tested
Description: as §1, §2

[13] = test system: MDA-MB-231; experiment: Cell proliferation with the MTT assay; conditions: read-out: IC50 (Inhibitory concentration 50%), MDA-MB-231, breast, ER−, NR = IC50 not reach at the concentrations tested
Description: as §1, §2

[14] = test system: MCF-7; experiment: Cell proliferation with the SRB assay; conditions: read-out: IC50 (Inhibitory concentration 50%), MCF-7 (ER+) breast carcinoma
Description: (§3) Cell Proliferation with the SRB Assay (Breast Cancer Cell Lines)
(§4) Two human breast tumor cell lines were used to evaluate the antitumor activities of the new estrogen-linked platinum (II) complexes. […] Cell proliferation was done with the sulforhodamine B (SRB) assay as described by Alley, M. C. et al. (Cancer Research. no 48, 589–601 (1988)) and Boyd, M. R. & Paull, K. D. (Drug Development Research. 34, 91–109, (1995)).

[15] = test system: MDA-MB-231; experiment: Cell proliferation with the SRB assay; conditions: read-out: IC50 (Inhibitory concentration 50%), MDA-MB-231 (ER−) breast carcinoma
Description: as §3, §4

Compound	IC50 [1] [µM]	IC50 [2] [µM]	IC50 [3] [µM]	IC50 [4] [µM]	IC50 [5] [µM]	IC50 [6] [µM]	IC50 [7] [µM]	IC50 [8] [µM]	IC50 [9] [µM]	IC50 [10] [µM]	IC50 [11] [µM]	IC50 [12] [µM]	IC50 [13] [µM]	IC50 [14] [µM]	IC50 [15] [µM]
C[C@]12CCC3c4ccc(O)cc4CCC3C1C[C@@](CO)(CCCCCCNCc1ccccn1)[C@@H]2O.[Cl][Pt][Cl] (stereo partly drawn) [derivative 14 (∘ = 1, p = 4), 16β-hydroxymethyl-16α-[6-(1-pyridin-2-yl-methylamino)-hexyl]-1,3,5(10)-estratrien-3,17β-diol dichloroplatinum (II)]	> 40	36.2	23.5	> 40	16	> 40	> 40	19.5	36.2	36.2	> 40	> 40	> 40	–	–
16β-hydroxymethyl-16α-[8′-(2-pyridin-2-yl-ethylamino)-3′,6′-dioxaoctyl]-1,3,5(10)-estratrien-3,17β-diol dichloroplatinum (II) [derivative 23]	16	17.5	7.9	12.7	6.25	32.5	2.5	20.4	16.2	13.8	33.8	14.6	18.8	–	–
C[C@]12CCC3c4ccc(O)cc4CCC3C1C[C@@](CO)(CCCCCCCCCCNCCc1ccccn1)[C@@H]2O.[Cl][Pt][Cl] (stereo partly drawn) [derivative 14 (∘ = 2, p = 8), 16β-hydroxymethyl-16α-[10-(2-pyridin-2-yl-ethylamino)-decyl]-1,3,5(10)-estratrien-3,17β-diol dichloroplatinum (II)]	2	3.7	1.65	4	3.1	5.8	2.2	2.4	3.3	6.8	9.5	2.5	4	–	–
C[C@]12CCC3c4ccc(O)cc4CCC3C1C[C@@](CO)(CCCCCCCCCCNCc1ccccn1)[C@@H]2O.[Cl][Pt][Cl] (stereo partly drawn) [derivative 14 (∘ = 1, p = 8), 16β-hydroxymethyl-16α-[10-(1-pyridin-2-yl-methylamino)-decyl]-1,3,5(10)-estratrien-3,17β-diol dichloroplatinum (II)]	16.6	9.5	10	17.7	9.5	> 40	> 40	15.6	34.9	32.2	40	27.6	15.3	–	–
C[C@]12CCC3c4ccc(O)cc4CCC3C1C[C@@](CO)(CCCCCCNCCc1ccccn1)[C@@H]2O.[Cl][Pt][Cl] (stereo partly drawn) [derivative 14 (∘ = 2, p = 4), 16β-hydroxymethyl-16α-[6-(2-pyridin-2-yl-ethylamino)-hexyl]-1,3,5(10)-estratrien-3,17β-diol dichloroplatinum (II)]	7	8.9	5	7	6.4	12.5	20	6.4	7.25	8.9	12.5	11.4	> 40	–	–
C[C@]12CCC3c4ccc(O)cc4CCC3C1C[C@@](CO)(CCCCNCCc1ccccn1)[C@@H]2O.[Cl][Pt][Cl] (stereo partly drawn) [derivative 14 (∘ = 2, p = 2), 16β-hydroxymethyl-16α-[4-(2-pyridin-2-yl-ethylamino)-butyl]-1,3,5(10)-estratrien-3,17β-diol dichloroplatinum (II)]	30.5	> 40	19.5	28.5	10	35.6	16	26.3	33	34.5	31.2	26.3	> 40	–	–
C[C@]12CCC3c4ccc(O)cc4CCC3C1C[C@@](CO)(CCCCCCCCNCCc1ccccn1)[C@@H]2O.[Cl][Pt][Cl] (stereo partly drawn) [derivative 14 (∘ = 2, p = 6), 16β-hydroxymethyl-16α-[8′-(2-pyridin-2-yl-ethylamino)-octyl]-1,3,5(10)-estratrien-3,17β-diol dichloroplatinum (II)]	3.6	2.7	3.3	6.4	0.1	4.8	8	2.1	4.3	4.6	5	4.6	10.5	–	–
C[C@]12CC[C@@H]3c4ccc(O)cc4CC[C@H]3[C@@H]1C[C@H](CCCCCCCCCCCNCc1ccccn1)[C@@H]2O.[Cl][Pt][Cl] [derivative 12 (∘ = 1), 16β-[11′-(2″-picolylamino)undecanyl]-1,3,5(10)-estratrien-3,17β-diol dichloroplatinate (II)]	–	6	–	–	7	–	28	13	–	–	–	–	–	5.9	4.1
C[C@]12CCC3c4ccc(O)cc4CCC3C1C[C@H](CCCCCCCCCCCNCCc1ccccn1)[C@@H]2O.[Cl][Pt][Cl] (stereo partly drawn) [derivative 12 (∘ = 2), 16β-[11′-(2″-pyridylethylamino)undecanyl]-1,3,5(10)-estratrien-3,17β-diol dichloroplatinate (II)]	–	1.75	–	–	1	–	0.25	3.75	–	–	–	–	–	< 0.78	< 0.78
C[C@]12CCC3c4ccc(O)cc4CCC3C1C[C@@](CO)(CCCCNCc1ccccn1)[C@@H]2O.[Cl][Pt][Cl] (stereo partly drawn) [derivative 14 (∘ = 1, p = 2), 16β-hydroxymethyl-16α-[4-(1-pyridin-2-yl-methylamino)-butyl]-1,3,5(10)-estratrien-3,17β-diol dichloroplatinum (II)]	> 40	> 40	33.7	> 40	40	> 40	36	> 40	> 40	> 40	> 40	> 40	> 40	–	–
C[C@]12CCC3c4ccc(O)cc4CCC3C1C[C@@](CO)(CCCCCCCCNCc1ccccn1)[C@@H]2O.[Cl][Pt][Cl] (stereo partly drawn) [derivative 14 (∘ = 1, p = 6), 16β-hydroxymethyl-16α-[8-(1-pyridin-2-yl-methylamino)-octyl]-1,3,5(10)-estratrien-3,17β-diol dichloroplatinum (II)]	11	19.5	6.3	20	7.8	35	19.5	9.2	17.5	34.4	18.8	11.2	40	–	–
N.N.[Cl][Pt][Cl] [Cisplatin, cis-diamminedichloroplatinum (II), reference compound]	–	24.3 ± 6.3	–	–	14.1 ± 0.5	–	3.7 ± 0.9	20.8 ± 4.7	–	–	–	–	–	16.1	12.8
